Measured values published in US6399083B1, “Cosmetic compositions containing chick pea extract and retinoids” (Unilever Home & Personal Care USA, division of Conopco, Inc., priority 1999, dated 2002).

Test system: CRABP-2
Assay: CRABP-2 protein expression in fibroblasts by Western immuno-blotting and densitometric scanning
Type: cell-based, Human
Settings: for As % of control: control as 100%
Experimental: Dried chick pea was purchased from local markets and powdered in a dry grinder. The alcoholic extract of chick pea was prepared by stirring 1 gram of the dry chick pea powder in 10 ml of ethanol for 4 to 24 hrs at room temperature. The extract was clarified by filtration and centrifugation, to obtain a 10% extract of chick pea in ethanol.
Human adult fibroblasts obtained from sun-protected inner arm of […] were used in this. Cells were grown in 1:1 DMEM/Hams F12 media containing 10% FBS, maintained at 37 C. in a 5% CO2 atmosphere under normal atmospheric oxygen tension. Third passage adult fibroblasts were grown in DMEM media with 10% FBS in 12-well plates at a seeding density of 40,000 cells/ml/well. The cells at 80% confluence were rinsed in serum free and phenol red free (PRF) DMEM media twice. Pre-treatment with chick pea extract for 4 hours was conducted and then dosed with retinoids and was incubated for 48 hours. After the incubation, the wells were washed twice with 1×PBS and the cell monolayer was harvested in 100 μI cell lysis buffer (contains 1×PBS, 1% TritonX, 0.5% sodium deoxycholate, 0.1% SDS containing protease inhibitor (10 mg/ml PMSF in isopropanol, 10 μl/ml)). The suspension was spun at 14000 rpm for 10 minutes, the supernatant collected and an aliquot of this supernatant was used for protein quantification. Protein concentration was determined using Pierce protein kit. The remainder of 100 μl supernatant (cell lysate) was denatured in a mixture of 40 μl sample buffer (NOVEX) and 0.5% Beta mercaptoethanol (BME) and by boiling the sample for 5 minutes. Equal amount of protein was then loaded onto 16% Tris-glycine gels for protein analysis by SDS page and Western Immuno-blotting for CRABP-2 protein expression.
To measure the levels of CRABP-2 in the fibroblasts prepared as described above, the cell supernatant was re-suspended in 4×sample buffer and 0.5% BME, boiled for 5 minutes and used for western blotting. Equal amounts of protein were loaded onto 16% Tris-glycine gels for CRABP-2 protein analysis by SDS page and Western Immuno-blotting. The gels were transferred to nitrocellulose blots and Western Blotting was carried out using monoclonal antibodies to CRABP-2 according to standard procedures. The CRABP-2 protein band was visualized in the Western Blots using the chemiluminescence system obtained from Santa Cruz Biotechnology (Santa Cruz, Calif.). The bands in the film were quantitated by densitometric scanning, the data from triplicate samples were calculated as % of control and expressed in the following tables as % increase over control (with control as 100%) +/−SD of triplicates.

[1] = Example 1: 100 nM retinoids and 0.1 μl of a 10% chick pea extract, 4 h extract pre-treatment, 48 h incubation, +/- SD of triplicates
[2] = Example 1: 100 nM retinoids and 0.1 μl of a 10% chick pea extract, +/- SD of triplicates
[3] = Example 1: 100 nM retinoids and 0.1 μl of a 10% chick pea extract
[4] = Example 3: 500 nM retinoids and 0.1 μl of a 10% chick pea extract, +/- SD of triplicates
[5] = Example 3: 500 nM retinoids and 0.1 μl of a 10% chick pea extract
[6] = second table headed Example 3: 500 nM retinoids and 0.1 μl of a 10% chick pea extract, +/- SD of triplicates
[7] = second table headed Example 3: 500 nM retinoids and 0.1 μl of a 10% chick pea extract

Row | Structure (SMILES) | CRABP-2 levels [1] | CRABP-2 levels [2] | As % of control [3] | As % of control [2] | CRABP-2 levels [4] | As % of control [5] | CRABP-2 levels [6] | As % of control [7]
1 | CC1=C(/C=C/C(C)=C/C=C/C(C)=C/CO)C(C)(C)CCC1 [Retinol] | 2.02 +/− 0.23 | 2.02 +/− 0.23 | 289 +/− 34 % of control | 289 +/− 34 % of control | 0.72 +/− 0.04 | 102 +/− 6 % of control | 0.72 +/− 0.04 | 102 +/− 6 % of control
2 | CCCCCCCCCCCCCCCC(=O)OC/C=C(C)/C=C/C=C(C)/C=C/C1=C(C)CCCC1(C)C [Retinyl Palmitate, retinyl palmitate] | 1.84 +/− 0.16 | 1.84 +/− 0.16 | 262 +/− 24 % of control | 262 +/− 24 % of control | 0.94 +/− 0.31 | 135 +/− 45 % of control | 0.94 +/− 0.31 | 135 +/− 45 % of control
3 | CC(=O)OC/C=C(C)/C=C/C=C(C)/C=C/C1=C(C)CCCC1(C)C [Retinyl acetate, retinyl acetate] | 1.44 +/− 0.26 | 1.44 +/− 0.26 | 206 +/− 37 % of control | 206 +/− 37 % of control | 1.65 +/− 0.49 | 235 +/− 70 % of control | 1.65 +/− 0.49 | 235 +/− 70 % of control
4 | CCCCC/C=C\C/C=C\CCCCCCCC(=O)OC/C=C(C)/C=C/C=C(C)/C=C/C1=C(C)CCCC1(C)C [Retinyl linoleate, retinyl linoleate] | 2.06 +/− 0.09 | 2.06 +/− 0.09 | 294 +/− 12 % of control | 294 +/− 12 % of control | 0.81 +/− 0.16 | 115 +/− 23 % of control | 0.81 +/− 0.16 | 115 +/− 23 % of control
